“Also recorded” adds a separate entry of the source.
What was measured:
[1] = target: T1, human P-glycoprotein transporter (Homo sapiens, UniProt P08183); test: P-gp substrate assessment, efflux ratio in MDCKII-MDR1 cells; assay type: in vitro ADME; conditions: P-gp substrate classification, MDCKII-MDR1 cells
T1 construct: expressed in transfected cells; host or cells: MDCKII (canine kidney)
Description: (§1) Methods and Procedure: This study was conducted in compliance with previously described procedures to assure data integrity and adherence to GLP regulations. The experiments described herein were designed to evaluate the apparent permeability (Papp) of test compounds at pH 7.4. Additionally, the MDCKII-MDR1 cell line (Madin-Darby Canine Kidney clone II cell line heterologously expressing the human P-glycoprotein transporter) and mock cell line MDCKII were used to determine whether a compound acted as a P-gp substrate, in the absence and in the presence of the potent P-gp inhibitor. Test control items (digoxin, metoprolol, and atenolol) and control P-gp inhibitor (GF120918) stock solution were prepared in DMSO. Bidirectional assays (Apical to Basolateral [AB] and Basolateral to Apical [BA]) were run, in both the absence and presence of P-gp inhibitor GF120918 in MDCKII-MDR1 and mock cell line MDCKII, using as transport buffer HBSSH at a pH of 7.4 (n=3).
(§2) Compounds were tested at a single concentration (i.e. at 3 or 10 μM) at one time point (i.e. 60 min). Alternative concentrations or time-points may also be investigated. As reference compounds, digoxin (P-gp substrate), atenolol (low permeable compound) and metoprolol (high permeable compound) were included at a single concentration (e.g., 10 or 25 μM) and at single time point (e.g., 60 min). Digoxin transport was evaluated in two directions (apical-to-basolateral [AB] and basolateral-to-apical [BA]) in the absence and presence of GF120918 or in mock cells, MDCKII (n=3). Atenolol and metoprolol were only tested in the AB direction in absence of GF120918 or in mock cells, MDCKII (n=3). The integrity of the cell monolayer was evaluated after the permeability experiment using the paracellular permeability marker Lucifer yellow (LY) in the apical to basolateral direction in each well.
(§3) MDCKII or MDCKII-MDRI cells cultivated using DMEM (high glucose, GlutaMAX™ supplemented with pyruvate, 10% FBS HI and Pen/Strep) and seeded onto microporous PET (Polyethylene Terephthalate) membranes in HTS 96-Multiwell Insert plates at density of ˜175,000-245,000 cells/cm^2 (25000-35000 cells/well; 50 μL/well) in DMEM medium and incubated for 3-4 days at 37° C.-5% CO2. Medium was changed a day before the experiment.
(§4) Stock solutions of test items were prepared in DMSO at a concentration of 5 or 10 mM and stored at −20° C. until use. The potent P-gp inhibitor, GF120918 (stock solution 10 mM) and the reference controls digoxin, atenolol, metoprolol (stock solutions 3 or 10 mM) were prepared in DMSO and stored at −20° C. until use.
(§5) Donor working solutions of test items and reference controls will be prepared at a concentration of 10 or 25 μM, diluting the stock solutions in HBSSH. Receiver working solutions contained transport buffer only. All working solutions were prepared such that the final concentration of DMSO was <1% (v/v). A donor working solution containing LY was also prepared in transport buffer at 100 µM.
(§6) MDCKII and MDCKII-MDR1 cells were preincubated (37° C., 15 to 30 minutes) in receiver working solutions containing transport buffer on apical (A) and basolateral (B) sides. Following pre-incubation, test items and control items (digoxin) transport were measured in two directions (apical to basolateral [AB]) and basolateral to apical [BA]), and these directions were performed in triplicate sets of wells, in both the absence and presence of […] GF120918 or mock MDCKII cells. For [AB] directional transport, 75 μL of donor working solution was added to the A (apical) compartment and 235 μL of receiver working solution was added to the B (basolateral) compartment. For [BA] directional transport, 235 μL donor working solution with test items or reference controls was added to the B compartment and 75 μL receiver working solution was added to the A compartment. Transport of permeability reference controls, atenolol and metoprolol, were measured in one direction (apical to basolateral [AB]) (n=3). […]

[2] = target: T2, human P-glycoprotein (MDR1) (Homo sapiens, UniProt P08183); test: as above; assay type: in vitro ADME; conditions: dog, MDCK-MDR1, pH 7.4; efflux ratio; P-gp substrate if ratio >2 and reduced by inhibitor; read-out: B/A ratio in MDCKII-MDR1 cells
T2 construct: expressed in transfected cells; host or cells: MDCKII (canine kidney)
Description: as §1, §2, §3, §4, §5, §6

T1 sequence (P08183 whole entry): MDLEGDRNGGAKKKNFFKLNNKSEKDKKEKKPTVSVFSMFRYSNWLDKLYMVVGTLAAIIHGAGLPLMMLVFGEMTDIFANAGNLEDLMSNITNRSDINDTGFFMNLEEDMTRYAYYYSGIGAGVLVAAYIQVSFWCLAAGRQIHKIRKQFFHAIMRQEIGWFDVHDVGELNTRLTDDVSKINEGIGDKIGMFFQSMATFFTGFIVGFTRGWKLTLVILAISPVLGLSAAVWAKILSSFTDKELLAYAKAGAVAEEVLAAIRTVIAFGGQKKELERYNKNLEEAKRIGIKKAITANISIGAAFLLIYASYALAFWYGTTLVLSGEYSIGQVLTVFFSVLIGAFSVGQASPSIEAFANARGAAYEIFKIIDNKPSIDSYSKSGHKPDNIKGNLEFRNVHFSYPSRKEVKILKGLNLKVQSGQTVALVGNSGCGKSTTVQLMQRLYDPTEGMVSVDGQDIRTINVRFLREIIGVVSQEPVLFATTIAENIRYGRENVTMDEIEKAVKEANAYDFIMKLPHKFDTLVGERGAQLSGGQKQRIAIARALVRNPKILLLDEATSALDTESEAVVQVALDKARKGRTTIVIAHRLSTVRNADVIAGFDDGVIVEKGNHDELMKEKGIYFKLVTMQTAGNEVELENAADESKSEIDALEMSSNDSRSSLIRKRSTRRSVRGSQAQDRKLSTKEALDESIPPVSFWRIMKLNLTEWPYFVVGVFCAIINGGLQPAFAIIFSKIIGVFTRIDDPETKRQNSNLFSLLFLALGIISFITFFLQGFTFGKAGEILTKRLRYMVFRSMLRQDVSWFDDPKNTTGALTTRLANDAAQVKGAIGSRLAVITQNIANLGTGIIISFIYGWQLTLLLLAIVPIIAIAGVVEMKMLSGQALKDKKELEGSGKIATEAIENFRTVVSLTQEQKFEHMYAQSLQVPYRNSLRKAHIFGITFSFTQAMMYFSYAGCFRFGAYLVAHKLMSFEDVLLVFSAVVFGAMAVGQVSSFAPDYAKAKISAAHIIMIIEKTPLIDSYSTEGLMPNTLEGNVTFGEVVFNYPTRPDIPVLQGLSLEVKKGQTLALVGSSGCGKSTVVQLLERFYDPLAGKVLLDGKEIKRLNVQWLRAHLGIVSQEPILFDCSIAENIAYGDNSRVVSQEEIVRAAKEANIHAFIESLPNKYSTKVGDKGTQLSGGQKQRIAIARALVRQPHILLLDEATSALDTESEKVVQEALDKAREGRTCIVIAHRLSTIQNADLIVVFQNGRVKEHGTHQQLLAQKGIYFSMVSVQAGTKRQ
T2 sequence (P08183 whole entry): as above

SMILES	Substrate Classification [1]	efflux ratio at 60 min [2]
Clc1ccc([C@]23CN[C@H](CO2)C3)cc1Cl (single isomer, unassigned) [516A]	pGP-NO	0.73
CNC(C)Cc1ccc2c(c1)OCO2 (centres unmarked) [MDMA, reference compound]	not a P-gp substrate	1.5
Clc1ccc(C23CNC(CO2)C3)cc1Cl (centres unmarked) [522A, 1-(3,4-dichlorophenyl)-2-oxa-5-azabicyclo[2.2.1]heptane]	not determined to be a substrate for P-gp; also recorded: pGP-NO	0.83
Clc1ccc([C@@]23CN[C@@H](CO2)C3)cc1Cl (single isomer, unassigned) [518A]	not determined to be a substrate for P-gp; also recorded: pGP-NO	0.7
